Experiments:
[1] = molecular target: D(2) dopamine receptor (Homo sapiens, UniProt P14416); assay: Displacement of [3H]spiperone from human dopamine D2S receptor expressed in HEK293 cells; assay type: cell-based
[2] = molecular target: T1, Alpha-1A adrenergic receptor (Homo sapiens, UniProt P35348); assay: Displacement of [3H]prazosin from human adrenergic alpha1A receptor
T1 sequence (P35348 whole entry): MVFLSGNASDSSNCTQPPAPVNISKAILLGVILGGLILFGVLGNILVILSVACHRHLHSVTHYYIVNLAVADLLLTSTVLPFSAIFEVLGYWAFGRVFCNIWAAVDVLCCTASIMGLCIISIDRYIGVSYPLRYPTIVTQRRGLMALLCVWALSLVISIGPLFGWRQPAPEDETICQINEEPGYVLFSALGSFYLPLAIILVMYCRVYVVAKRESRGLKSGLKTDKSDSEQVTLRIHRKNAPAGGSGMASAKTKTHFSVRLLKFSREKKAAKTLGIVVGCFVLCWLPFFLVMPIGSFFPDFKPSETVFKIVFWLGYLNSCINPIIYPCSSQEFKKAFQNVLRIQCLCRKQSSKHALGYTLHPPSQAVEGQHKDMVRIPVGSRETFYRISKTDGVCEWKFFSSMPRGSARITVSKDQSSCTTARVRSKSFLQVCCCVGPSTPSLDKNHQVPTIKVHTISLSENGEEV

[3] = species on record: Homo sapiens; assay: Selectivity ratio of Ki for human dopamine D2S receptor to Ki for human dopamine D3 receptor
[4] = species on record: Homo sapiens; assay: Selectivity ratio of Ki for human adrenergic alpha1A receptor to Ki for human dopamine D3 receptor
[5] = molecular target: D(3) dopamine receptor (Homo sapiens, UniProt P35462); assay: biochemical
Description: Displacement of [3H]spiperone from human dopamine D3 receptor expressed in CHO cells

[6] = system: Rattus norvegicus; assay: Absolute bioavailability in rat plasma at 10 mg/kg, po and 3 mg/kg, iv; assay type: ADME, organism-based; conditions: in vivo
[7] = system: Mus musculus; assay: Absolute bioavailability in mouse plasma at 10 mg/kg dose po and iv; assay type: ADME, organism-based; conditions: in vivo

D(2) dopamine receptor, sequence (P14416 whole entry): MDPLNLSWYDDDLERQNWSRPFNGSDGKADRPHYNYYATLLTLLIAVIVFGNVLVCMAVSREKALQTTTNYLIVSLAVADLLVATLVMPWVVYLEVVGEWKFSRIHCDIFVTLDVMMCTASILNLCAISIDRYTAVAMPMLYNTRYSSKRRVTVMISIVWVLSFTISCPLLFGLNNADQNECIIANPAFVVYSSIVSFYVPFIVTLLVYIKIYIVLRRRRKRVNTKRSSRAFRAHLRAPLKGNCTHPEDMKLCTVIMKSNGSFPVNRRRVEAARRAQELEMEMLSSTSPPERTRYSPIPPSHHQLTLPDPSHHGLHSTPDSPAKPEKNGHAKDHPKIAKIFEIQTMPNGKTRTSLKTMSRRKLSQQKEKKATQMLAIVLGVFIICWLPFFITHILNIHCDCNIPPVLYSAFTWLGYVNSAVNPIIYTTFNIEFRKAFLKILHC
D(3) dopamine receptor, sequence (P35462 whole entry): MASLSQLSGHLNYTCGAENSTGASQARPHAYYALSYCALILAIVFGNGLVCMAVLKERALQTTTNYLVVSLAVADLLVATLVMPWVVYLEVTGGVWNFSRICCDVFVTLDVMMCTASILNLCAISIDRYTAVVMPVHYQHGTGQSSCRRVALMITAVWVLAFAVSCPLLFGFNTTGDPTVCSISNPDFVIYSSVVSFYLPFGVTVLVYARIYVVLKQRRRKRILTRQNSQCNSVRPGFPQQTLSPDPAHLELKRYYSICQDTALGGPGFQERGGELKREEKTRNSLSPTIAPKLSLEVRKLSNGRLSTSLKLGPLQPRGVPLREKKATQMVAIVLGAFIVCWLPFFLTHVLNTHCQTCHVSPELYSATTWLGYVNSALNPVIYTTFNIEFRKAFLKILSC

Row | SMILES | Ki [1] [nM] | Ki [2] [nM] | Ratio Ki [3] | Ratio Ki [4] | Ki [5] [nM] | bioavailability [6] | bioavailability [7]
1 | FC(F)(F)c1cccc(N2CCN(CCCCNc3nccc4ccccc34)CC2)c1 | 58 | 68 | 58 | 68 | 1 |  | 
2 | FC(F)(F)c1cccc(N2CCN(CCCCNc3ccc(-c4ccccc4)cn3)CC2)c1 | 143 | 227 | 130 | 207 | 1.1 |  | 
3 | FC(F)(F)c1cccc(N2CCN(CCCCNc3nc(-c4ccccc4)cs3)CC2)c1 | 2430 | 72 | 183 | 5.4 | 13 |  | 
4 | Clc1cccc(N2CCN(CCCCNc3ccc(-c4ccccc4)cn3)CC2)c1Cl | 41 | 21 | 69 | 35 | 0.59 |  | 
5 | FC(F)(F)c1cccc(N2CCN(CCCCNc3ncc(-c4ccccc4)o3)CC2)c1 | 2320 | 272 | 242 | 28 | 9.6 |  | 
6 | FC(F)(F)c1cccc(N2CCN(CCCCNc3ccc4ccccc4n3)CC2)c1 | 53 | 12 | 33 | 7.5 | 1.6 |  | 
7 | Clc1cccc(N2CCN(CCCCNc3nccc4ccccc34)CC2)c1Cl |  | 60 |  |  |  |  | 
8 | Clc1cccc(N2CCN(CCCCNc3ccc4ccccc4n3)CC2)c1Cl | 23 | 46 | 39 | 77 | 0.6 |  | 
9 | FC(F)(F)c1cccc(N2CCN(CCCCNc3cc(-c4ccccc4)ccn3)CC2)c1 | 194 | 119 | 256 | 157 |  | 0.65 | 0.4

Results, then the compound that gave them:

Row | Ki [1] [nM] | Ki [2] [nM] | Ratio Ki [3] | Ratio Ki [4] | Ki [5] [nM] | bioavailability [6] | bioavailability [7] | SMILES
10 | 198 | 593 | 12 | 35 | 17 |  |  | FC(F)(F)c1cccc(N2CCN(CCCCNc3ccccn3)CC2)c1
11 | 198 | 23 | 247 | 29 | 0.8 |  |  | COc1ccccc1N1CCN(CCCCNc2ccccn2)CC1
12 | 309 | 9 | 206 | 6 | 1.5 |  |  | Fc1ccccc1N1CCN(CCCCNc2cc(-c3ccccc3)ccn2)CC1
13 |  | 6 |  |  |  |  |  | COc1ccccc1N1CCN(CCCCNc2ccc3ccccc3n2)CC1
14 | 70 | 6 | 70 | 6.3 | 1 |  |  | COc1ccccc1N1CCN(CCCCNc2nccc3ccccc23)CC1
15 | 207 | 40 | 17 | 3 | 12 |  |  | Cc1cccc(N2CCN(CCCCNc3ccccn3)CC2)c1C
16 | 133 | 17 | 12 | 1.5 | 11 |  |  | Fc1ccccc1N1CCN(CCCCNc2ccccn2)CC1
17 | 383 | 14 | 12 | 0.4 | 32 |  |  | Cc1ccccc1N1CCN(CCCCNc2ccccn2)CC1
18 | 122 | 10 | 49 | 4 | 2.5 |  |  | Fc1ccccc1N1CCN(CCCCNc2ccc(-c3ccccc3)cn2)CC1
19 |  | 33 |  |  |  |  |  | Clc1cccc(N2CCN(CCCCNc3ccccn3)CC2)c1Cl
20 | 184 | 58 | 334 | 106 |  |  |  | Clc1cccc(N2CCN(CCCCNc3cc(-c4ccccc4)ccn3)CC2)c1Cl
